This is an account of results in US20240041042A1, “1-(PYRIDYL)-5-AZINYLPYRAZOLE DERIVATIVES, AND THEIR USE FOR CONTROL OF UNDESIRED PLANT GROWTH” (Bayer Aktiengesellschaft, priority 2020, published 2024).

Read-outs that look alike come from different tables or passages of the source.

Assay type in all cases: in vivo
Series [1] deals with Amaranthus retroflexus (AMARE). The series is described as follows: Pre-emergence herbicidal action against AMARE. As to conditions: 320 g/ha, visual scoring after about 3 weeks vs untreated controls. A digest of the protocol:
(§1)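 Application rates ran to 320 g/ha or lower, with several dosages tested on the same weeds. The compound, as wettable powder or emulsion concentrate, is sprayed pre-emergence onto soil over sown seeds; greenhouse growth follows, and effect is rated visually after roughly 3 weeks.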

Series [2] concerns Matricaria inodora (MATIN). The series is described as follows: Pre-emergence herbicidal action against MATIN. The settings on record: dosage 320 g/ha. A digest of the protocol: as §1
Series [3] relates to Setaria viridis (SETVI). The series is described as follows: Pre-emergence herbicidal action against SETVI. As to conditions: dosage 320 g/ha. A digest of the protocol:
as §1

A further series deals with Brassica napus (BRSNW). As to conditions: 80 g/ha, crop plant compatibility, in comparison to untreated controls. A digest of the protocol: (§2)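 Crop injury rated visually in percent against untreated plants roughly 3 weeks after treatment (0% no effect, 100% plants dead). Compounds, as WP or EC with 0.5% additive in 600 l/ha water, were applied to the covering soil right after sowing; greenhouse growth. Suffixes a, b, c denote different dosages.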

Another series deals with Glycine max (GLXMA). As to conditions: pre-emergence, 80 g/ha, crop plant compatibility, in comparison to untreated controls. Summed up: as §2
Series [4] relates to Oryza sativa (ORYSA). As to conditions: pre-emergence, 80 g/ha, crop plant compatibility, in comparison to untreated controls. Summed up:
as §2

The test system of series [5] is Triticum aestivum (TRZAS). The settings on record: pre-emergence, crop plant compatibility, in comparison to untreated controls. A digest of the protocol: as §2
Series [6] concerns Zea mays (ZEAMX). As to conditions: pre-emergence, 80 g/ha, crop plant compatibility, in comparison to untreated controls. Summed up:
as §2

The subject of series [7] is Abutilon theophrasti (ABUTH). The series is described as follows: Post-emergence herbicidal action against ABUTH. The settings on record: 320 g/ha, visual rating about 3 weeks after treatment vs untreated controls (100% = plants have died, 0% = like control plants). Summed up:
(§3)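 Values are percent visual activity (0% like control, 100% plants dead) after about 3 weeks in the greenhouse. Treatment: post-emergence spray at one-leaf stage, 600 l/ha spray volume, 0.5% additive, doses 320 g/ha or lower.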

In series [8] the test system is Alopecurus myosuroides (ALOMY). The series is described as follows: Post-emergence herbicidal action against ALOMY. The settings on record: 320 g/ha, visual rating about 3 weeks after treatment vs untreated controls (100% = plants have died, 0% = like control plants). A digest of the protocol: as §3
The subject of series [9] is Echinochloa crus-galli (ECHCG). In words: Post-emergence herbicidal action against ECHCG. As to conditions: dosage 320 g/ha. A digest of the protocol:
as §3

The next series deals with Lolium rigidum (LOLRI). The series is described as follows: Post-emergence herbicidal action against LOLRI. The settings on record: dosage 320 g/ha. A digest of the protocol: as §3
The test system of series [10] is Pharbitis purpurea (PHBPU). In words: Post-emergence herbicidal action against PHBPU. A digest of the protocol: as §3
The subject of series [11] is Polygonum convolvulus (POLCO). The series is described as follows: Post-emergence herbicidal action against POLCO. Summed up:
as §3

Series [12] relates to Setaria viridis (SETVI). In words: Post-emergence herbicidal action against SETVI. As to conditions: dosage 320 g/ha. A digest of the protocol:
as §3

The subject of series [13] is Verconica persica (VERPE). In words: Post-emergence herbicidal action against VERPE. The settings on record: 320 g/ha, VERPE. Summed up: as §3
In series [14] the test system is Oryza sativa (ORYSA). The settings on record: crop plant compatibility, 80 g/ha, effect in comparison to untreated controls. Summed up: (§4)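 Visual rating (% effect vs. untreated plants; 100% = plant death) made about 3 weeks after treatment. Plants had been sprayed at one-leaf stage, 2–3 weeks post-sowing, with aqueous WP/EC preparations containing 0.5% additive, 600 l/ha water volume; a, b, c mark dose levels.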

For series [15], the system named is Triticum aestivum (TRZAS). The settings on record: crop plant compatibility, 80 g/ha, effect vs untreated controls. A digest of the protocol:
as §4

The test system of series [16] is Zea mays (ZEAMX). As to conditions: crop plant compatibility, 80 g/ha, effect vs untreated controls. A digest of the protocol: as §4

Turning to `CCOC(=O)COc1nn(-c2cccc(C)n2)c(-c2ccc(F)nc2)c1Br` [Example I-312], the “Pre-emergence action against AMARE in %” value in [1] was determined as 90%. Moreover, in series [2], the “Pre-emergence action against MATIN in %” value is listed as 90%. Further, the “Pre-emergence action against SETVI in %” value in the series on Setaria viridis (SETVI) [3] is 90%. Further, in the series with Brassica napus (BRSNW), the “Pre-emergence action against BRSNW in %” value was determined as 20%. Further, in the series with Glycine max (GLXMA), the “Pre-emergence action against GLXMA in %” value was determined as 20%. Also, in the series with Oryza sativa (ORYSA) [4], the “Pre-emergence action against ORYSA in %” value was determined as 20%. The figures for the “Pre-emergence action against TRZAS in %” value in series [5] (80 g/ha) and in series [5] (320 g/ha) were 10% and 20%, respectively. Also, in the series on Zea mays (ZEAMX) [6], the “Pre-emergence action against ZEAMX in %” value turned out to be 20%. In [7], the “Post-emergence action against ABUTH in %” value turned out to be 80%. Further, the “Post-emergence action against ALOMY in %” value in series [8] was determined as 90%. Further, the “Post-emergence action against ECHCG in %” value in series [9] is reported as 90%. Also, the “Post-emergence action against LOLRI in %” value in the series on Lolium rigidum (LOLRI) stood at 90%. In addition, the “Post-emergence action against PHBPU in %” value stood at 80% in [10] (dosage 80 g/ha) and 90% in series [10] (dosage 320 g/ha). The “Post-emergence action against POLCO in %” value in [11] (dosage 80 g/ha) and in series [11] (dosage 320 g/ha) was 80% each time. The “Post-emergence action against SETVI in %” value with Setaria viridis (SETVI) [12] came out at 80%. Also, the “Post-emergence action against VERPE in %” value in series [13] amounted to 80%. Besides, the “Post-emergence action against ORYSA in %” value with Oryza sativa (ORYSA) [14] was found to be 10%. In series [15], the “Post-emergence action against TRZAS in %” value was 20%. In addition, the “Post-emergence action against ZEAMX in %” value in the series on Zea mays (ZEAMX) [16] amounted to 10%.
